The values below are quoted from earlier work in patent US20190321427A1, “Compositions to Treat Anal Fissures” (G&S Laboratories, Inc., priority 2018, published 2019).

The data set has as its system anal fissures.

Where two headings read alike, the source gives them in different places.

Consider botulinum toxin, for which the healing rates (in vivo) is 30-96%.

Turning to `O=[N+]([O-])OCC(CO[N+](=O)[O-])O[N+](=O)[O-]` [nitroglycerin], the healing rates (anal fissure, literature (Poh, 2010)) is reported as 40-70%. Where the note is “topical treatment of anal fissure”, the common side effect result is “headache”.
